Assays:
[1] = tested on: pressor response to Angiotensin I (AI); test: Inhibition of the pressor response to angiotensin I after i.v. administration, area under the AI inhibition response vs. time curve; format: in vivo; parameters: unit not given beside the values; conditions: test compound 50 μg/Kg i.v.; AI 300 ng/Kg into femoral vein; 0 to 360 min
Method: **Angiotensin I (AI, 300 ng/Kg) were injected into the femoral vein at
intervals of 10 min until the constant pressor response to AI was
180, 300 and 360 min after i.v. administration of the test compound (50
μg/Kg), and AVC (area under the curve) was calculated by the AI
inhibition response vs. time curves for 0 to 360 min.

rabbit lung ACE = target: T1, rabbit lung ACE (Oryctolagus cuniculus, UniProt P12822); test: Inhibition of rabbit lung ACE by the method of Friedland and Silverstein; format: biochemical; conditions: read-out: IC50 (concentration inhibiting 50% of the activity of rabbit lung ACE)
T1 construct: activity of rabbit lung ACE; from tissue; host or cells: rabbit lung
T1 sequence (P12822 34-1310): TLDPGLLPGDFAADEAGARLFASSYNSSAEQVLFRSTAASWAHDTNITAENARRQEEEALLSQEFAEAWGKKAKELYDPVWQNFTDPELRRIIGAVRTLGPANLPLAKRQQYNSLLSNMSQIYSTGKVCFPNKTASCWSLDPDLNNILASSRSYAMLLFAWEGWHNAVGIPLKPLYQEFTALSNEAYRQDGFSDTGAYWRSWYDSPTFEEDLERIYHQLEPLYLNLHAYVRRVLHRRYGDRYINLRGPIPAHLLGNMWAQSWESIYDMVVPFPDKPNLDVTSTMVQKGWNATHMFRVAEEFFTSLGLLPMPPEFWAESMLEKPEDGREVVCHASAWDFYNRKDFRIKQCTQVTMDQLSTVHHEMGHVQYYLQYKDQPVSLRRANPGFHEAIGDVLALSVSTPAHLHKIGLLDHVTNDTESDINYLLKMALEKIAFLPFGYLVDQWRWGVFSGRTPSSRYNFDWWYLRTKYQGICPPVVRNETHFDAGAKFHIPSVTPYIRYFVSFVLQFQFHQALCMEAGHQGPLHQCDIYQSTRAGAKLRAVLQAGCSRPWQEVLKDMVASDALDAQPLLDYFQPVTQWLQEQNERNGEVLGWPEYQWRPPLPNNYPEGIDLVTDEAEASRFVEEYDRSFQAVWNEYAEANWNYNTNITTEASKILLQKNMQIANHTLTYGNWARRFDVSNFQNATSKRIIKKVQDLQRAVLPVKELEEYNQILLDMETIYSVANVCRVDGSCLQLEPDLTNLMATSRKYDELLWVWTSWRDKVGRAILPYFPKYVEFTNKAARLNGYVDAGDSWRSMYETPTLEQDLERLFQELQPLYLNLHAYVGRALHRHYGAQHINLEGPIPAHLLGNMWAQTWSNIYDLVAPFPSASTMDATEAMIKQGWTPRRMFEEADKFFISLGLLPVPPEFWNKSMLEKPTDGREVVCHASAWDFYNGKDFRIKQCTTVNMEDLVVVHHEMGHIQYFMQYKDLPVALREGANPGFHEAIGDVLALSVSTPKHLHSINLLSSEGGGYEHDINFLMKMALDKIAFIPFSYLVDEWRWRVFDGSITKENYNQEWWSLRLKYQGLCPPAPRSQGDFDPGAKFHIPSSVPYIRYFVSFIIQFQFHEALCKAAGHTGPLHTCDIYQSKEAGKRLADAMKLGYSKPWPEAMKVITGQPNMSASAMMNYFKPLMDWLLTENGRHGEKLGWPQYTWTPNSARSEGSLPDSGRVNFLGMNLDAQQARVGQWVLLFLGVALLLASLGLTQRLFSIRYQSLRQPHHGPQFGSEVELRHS
Method: The evaluation of converting enzyme inhibitors is introduced from the analysis of enzyme inhibition in a test tube. One example of inhibition activity of the compounds of the present invention calculated from the method of Friedland & Silverstein [Am. J. Clin. Pathol.
*Concentration inhibiting 50% of the activity of rabbit lung ACE was
determined by the method of Friedland and Silverstein.

IC50 (rabbit lung ACE) [nM] | SMILES | (iv) AUC (area under the AI inhibition response vs. time curve) [1]
0.75 | C[C@H](N[C@@H](CCCCCCCN)C(=O)O)C(=O)N1CCC[C@H]1C(=O)O [Compound 1, N-[1(S)-carboxy-8-aminooctyl]-L-alanyl-L-proline] | 509
1 | C[C@H](N[C@@H](CCCCC1CCNCC1)C(=O)O)C(=O)N1CCC[C@H]1C(=O)O [Compound 2, N-[1(S)-carboxy-5-(4-piperidyl)pentyl]-L-alanyl-L-proline] | 429
1.1 | C[C@H](N[C@@H](CCCCCC1CCNCC1)C(=O)O)C(=O)N1CCC[C@H]1C(=O)O [Compound 3, N-[1(S)-carboxy-6-(4-piperidyl)hexyl]-L-alanyl-L-proline] | 424
0.7 | NCCCCCCC[C@H](N[C@@H](CCCCN)C(=O)N1CCC[C@H]1C(=O)O)C(=O)O [Compound 4, N^α -[1(S)-carboxy-8-aminooctyl]-L-lysyl-L-proline] | 431
1 | NCCCC[C@H](N[C@@H](CCCCC1CCNCC1)C(=O)O)C(=O)N1CCC[C@H]1C(=O)O [Compound 5, N^α -[1(S)-carboxy-5-(4-piperidyl)pentyl]-L-lysyl-L-proline] | 460
1 | NCCCC[C@H](N[C@@H](CCCCCC1CCNCC1)C(=O)O)C(=O)N1CCC[C@H]1C(=O)O [Compound 9, N^α -[1(S)-carboxy-6-(4-piperidyl)hexyl]-L-lysyl-L-proline] | 
0.9 | C[C@H](N[C@@H](CCCCCC1CCNCC1)C(=O)O)C(=O)N1[C@H](C(=O)O)C[C@@H]2CCCC[C@@H]21 [Compound 10, 1-[N-[1(S)-carboxy-6-(4-piperidyl)hexyl]-L-alanyl]-(2α,3aβ,7aβ)-octahydro-1H-indole-2(S)-carboxylic acid] | 
0.62 | C[C@H](N[C@@H](CCCCC1CCNCC1)C(=O)O)C(=O)N1[C@H](C(=O)O)C[C@@H]2CCCC[C@@H]21 [Compound 11, 1-[N-[1(S)-carboxy-5-(4-piperidyl)pentyl]-L-alanyl]-(2α,3aβ,7aβ)-octahydro-1H-indole-2(S)-carboxylic acid] | 
1.4 | CC(NC(CCCCCCN)C(=O)O)C(=O)N1CCCC1C(=O)O (stereo not drawn) [Compound 12, reference compound] | 368
